Test results reported in ChEMBL document CHEMBL1157561, “Identification of potent pyrazolo[4,3-h]quinazoline-3-carboxamides as multi-cyclin-dependent kinase inhibitors” (J Med Chem, 2010).
Values after ≈ are worked out from the molar mass of the structure shown.

Legend:
[1] = target: Cyclin-dependent kinase 2/cyclin A (Homo sapiens, UniProt P24941); assay: Inhibition of CDK2/Cyclin A; assay type: protein-complex assay
[2] = system: A2780; assay: Antiproliferative activity against human A2780 cells after 72 hrs by cell-titer-glo assay; assay type: functional, cell-based; details: A2780, 72 h
[3] = target: T1, Aurora kinase A (Homo sapiens, UniProt O14965); assay: Inhibition of Aurora A
T1 sequence (O14965 whole entry): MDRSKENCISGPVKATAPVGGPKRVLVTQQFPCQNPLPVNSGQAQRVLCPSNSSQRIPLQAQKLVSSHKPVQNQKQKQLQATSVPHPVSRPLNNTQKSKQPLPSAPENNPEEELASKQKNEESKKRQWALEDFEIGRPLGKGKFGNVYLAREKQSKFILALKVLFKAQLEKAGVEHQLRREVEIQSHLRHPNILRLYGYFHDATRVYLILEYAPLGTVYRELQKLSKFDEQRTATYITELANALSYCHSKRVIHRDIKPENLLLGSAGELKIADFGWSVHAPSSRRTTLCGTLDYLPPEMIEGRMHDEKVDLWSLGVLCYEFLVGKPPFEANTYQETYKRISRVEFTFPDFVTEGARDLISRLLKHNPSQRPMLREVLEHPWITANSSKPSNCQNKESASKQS

[4] = Solubility at pH 7.0; assay type: physicochemical; details: buffer

Structure (SMILES)	IC50 [1] [nM]	IC50 [2] [nM]	IC50 [3] [nM]	solubility [4] [µM]
Cn1nc(C(N)=O)c2c1-c1nc(N)ncc1CC2	> 10000	2200	> 10000	> 225
CN1CCN(C(=O)c2nn(C)c3c2CCc2cnc(NC4CCCC4)nc2-3)CC1	> 10000	506	> 10000	83 (≈ 32.8 µg/mL)
COc1ccc(-n2nc(C(N)=O)c3c2-c2nc(NC4CCCC4)ncc2CC3)cc1	6	557	2310	< 1
Cn1nc(C(N)=O)c2c1-c1nc(NCCN3CCOCC3)ncc1CC2	209	8660	> 10000	214 (≈ 76.5 µg/mL)
CN1CCN(c2cccc(CNc3ncc4c(n3)-c3c(c(C(N)=O)nn3C)CC4)c2)CC1	104	920	2140	210 (≈ 90.8 µg/mL)
Cn1nc(C(=O)N(O)Cc2ccccc2)c2c1-c1nc(NC3CCCC3)ncc1CC2	1370	6140	4560	< 1
Cn1nc(C(=O)N(O)C2CCCCC2)c2c1-c1nc(NC3CCCC3)ncc1CC2	296	3970	3840	< 1
NC(=O)c1nn(-c2ccc(S(N)(=O)=O)cc2)c2c1CCc1cnc(NC3CCCC3)nc1-2	5	1000	442	108 (≈ 49 µg/mL)
CNC(=O)c1nn(C)c2c1CCc1cnc(NC3CCN(C)CC3)nc1-2	4590	> 10000	> 10000	220 (≈ 78.2 µg/mL)
Cn1nc(C(N)=O)c2c1-c1nc(NCCN3CCCCC3)ncc1CC2	2490	7600	> 10000	182 (≈ 64.7 µg/mL)
